Source: paper PMC6816013 (Journal of Medicinal Chemistry, 2019)
Structures can show the parent of a compound that is named as a salt.

Biological target: HSA (Homo sapiens, UniProt P02768)
Assay: HSA binding (plasma protein binding)
Assay type: in vitro ADME
Settings: not given

Chain of HSA (P02768 25-609): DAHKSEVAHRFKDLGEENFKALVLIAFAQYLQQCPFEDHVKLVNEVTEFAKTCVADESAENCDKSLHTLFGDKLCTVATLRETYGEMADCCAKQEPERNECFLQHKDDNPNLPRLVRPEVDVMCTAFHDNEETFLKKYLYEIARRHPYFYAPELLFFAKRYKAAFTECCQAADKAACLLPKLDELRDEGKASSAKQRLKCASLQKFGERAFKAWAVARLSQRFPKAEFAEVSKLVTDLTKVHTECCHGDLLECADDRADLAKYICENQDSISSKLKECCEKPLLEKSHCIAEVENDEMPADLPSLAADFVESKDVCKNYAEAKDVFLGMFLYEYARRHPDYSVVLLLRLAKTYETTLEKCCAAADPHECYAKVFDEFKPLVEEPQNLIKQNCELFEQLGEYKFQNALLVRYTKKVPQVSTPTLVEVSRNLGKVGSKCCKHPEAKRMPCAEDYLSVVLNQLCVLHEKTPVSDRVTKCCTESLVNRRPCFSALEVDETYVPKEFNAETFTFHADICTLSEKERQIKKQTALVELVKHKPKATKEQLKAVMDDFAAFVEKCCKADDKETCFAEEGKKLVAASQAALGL

Question: Which HSA binding does the source give for `Cc1cc(Nc2nccc(-c3sc(C4CCNCC4)nc3-c3ccc(F)cc3)n2)nn1C` [Compound 23, N-(1,5-Dimethyl-1H-pyrazol-3-yl)-4-(4-(4-fluorophenyl)-2-(piperidin-4-yl)thiazol-5-yl)pyrimidin-2-amine] here?
Answer: 93%

Question: With `Nc1nc(-c2ccc(F)cc2)c(-c2ccnc(Nc3ccc(N4CCNCC4)cc3)n2)s1` [Compound 12, 4-[2-Amino-4-(4-fluorophenyl)-1,3-thiazol-5-yl]-N-[4-(piperazin-1-yl)phenyl]pyrimidin-2-amine] as the compound, how does the HSA binding read?
Answer: 98%

Question: With `Fc1ccc(-c2nc(C3CCNCC3)oc2-c2ccnc(Nc3ccncn3)n2)cc1` [Compound 28B] as the compound, how does the HSA binding read?
Answer: 89%

Question: With `CN(C)C(CNc1nccc(-c2sc(C3CCNCC3)nc2-c2ccc(F)cc2)n1)C1CC1` (centres unmarked) [Compound 46, 1-Cyclopropyl-N′-{4-[4-(4-fluorophenyl)-2-(piperidin-4-yl)-1,3-thiazol-5-yl]pyrimidin-2-yl}-N,N-dimethylethane-1,2-diamine] as the compound, how does the HSA binding read?
Answer: 91%

Question: For `Cc1nc(Nc2nccc(-c3sc(C4CCNCC4)nc3-c3ccc(F)cc3)n2)ccc1F` [Compound 35, N-(5-Fluoro-6-methylpyridin-2-yl)-4-(4-(4-fluorophenyl)-2-(piperidin-4-yl)thiazol-5-yl)pyrimidin-2-amine], which HSA binding is on record?
Answer: 96%

Question: Which HSA binding does the source give for `CN(C)CCNc1nccc(-c2sc(C3CCNCC3)nc2-c2ccc(F)cc2)n1` [Compound 45, N′-{4-[4-(4-Fluorophenyl)-2-(piperidin-4-yl)-1,3-thiazol-5-yl]pyrimidin-2-yl}-N,N-dimethylethane-1,2-diamine] here?
Answer: 83%

Question: With `COCCNc1nccc(-c2sc(C3CCNCC3)nc2-c2ccc(F)cc2)n1` [Compound 43, 4-[4-(4-Fluorophenyl)-2-(piperidin-4-yl)-1,3-thiazol-5-yl]-N-(2-methoxyethyl)pyrimidin-2-amine] as the compound, how does the HSA binding read?
Answer: 80%

Question: For `Cc1nc(Nc2nccc(-c3sc(C4CCNCC4)nc3-c3ccc(F)cc3)n2)cc(C2CCC2)c1F` [Compound 38, N-(4-Cyclobutyl-5-fluoro-6-methylpyridin-2-yl)-4-(4-(4-fluorophenyl)-2-(piperidin-4-yl)thiazol-5-yl)pyrimidin-2-amine], which HSA binding is on record?
Answer: 98%

Question: For `Fc1ccc(-c2nc(C3CCNCC3)sc2-c2ccnc(Nc3cnccn3)n2)cc1` [Compound 26, 4-(4-(4-Fluorophenyl)-2-(piperidin-4-yl)thiazol-5-yl)-N-(pyrazin-2-yl)pyrimidin-2-amine], which HSA binding is on record?
Answer: 92%

Question: For `CCOC(=O)N1CCC(c2nc(-c3ccc(F)cc3)c(-c3ccnc(Nc4ccc(N5CCN(C)CC5)cc4)n3)s2)CC1` [Compound 8], which HSA binding is on record?
Answer: 98%

Question: With `Fc1ccc(-c2nc(C3CCNCC3)sc2-c2ccnc(NCCN3CCCC3)n2)cc1` [Compound 47, 4-[4-(4-Fluorophenyl)-2-(piperidin-4-yl)-1,3-thiazol-5-yl]-N-[2-(pyrrolidin-1-yl)ethyl]pyrimidin-2-amine] as the compound, how does the HSA binding read?
Answer: 86%

Question: Which HSA binding does the source give for `CN1CCC(Nc2nccc(-c3sc(C4CCNCC4)nc3-c3ccc(F)cc3)n2)C1` (centres unmarked) [Compound 52, 4-[4-(4-Fluorophenyl)-2-(piperidin-4-yl)-1,3-thiazol-5-yl]-N-(1-methylpyrrolidin-3-yl)pyrimidin-2-amine] here?
Answer: 89%

Question: For `CN1CCN(CCNc2nccc(-c3sc(C4CCNCC4)nc3-c3ccc(F)cc3)n2)CC1` [Compound 48, 4-[4-(4-Fluorophenyl)-2-(piperidin-4-yl)-1,3-thiazol-5-yl]-N-[2-(4-methylpiperazin-1-yl)ethyl]pyrimidin-2-amine], which HSA binding is on record?
Answer: 90%

Question: Which HSA binding does the source give for `OC1CCN(c2nccc(-c3sc(C4CCNCC4)nc3-c3ccc(F)cc3)n2)C1` (centres unmarked) [Compound 54, 1-{4-[4-(4-Fluorophenyl)-2-(piperidin-4-yl)-1,3-thiazol-5-yl]pyrimidin-2-yl}pyrrolidin-3-ol] here?
Answer: 85%

Question: For `Fc1ccc(-c2nc(C3CCNCC3)sc2-c2ccnc(NCCN3CCOCC3)n2)cc1` [Compound 49, 4-(4-(4-Fluorophenyl)-2-(piperidin-4-yl)thiazol-5-yl)-N-(2-morpholinoethyl)pyrimidin-2-amine], which HSA binding is on record?
Answer: 83%

Question: With `Fc1ccc(-c2nc(C3CCNCC3)sc2-c2ccnc(NCC3CCCO3)n2)cc1` (centres unmarked) [Compound 44, 4-[4-(4-Fluorophenyl)-2-(piperidin-4-yl)-1,3-thiazol-5-yl]-N-(tetrahydrofuran-2-ylmethyl)pyrimidin-2-amine] as the compound, how does the HSA binding read?
Answer: 86%

Question: With `CCc1cc(Nc2nccc(-c3sc(C4CCNCC4)nc3-c3ccc(F)cc3)n2)nc(C)c1F` [Compound 36, N-(4-Ethyl-5-fluoro-6-methylpyridin-2-yl)-4-(4-(4-fluorophenyl)-2-(piperidin-4-yl)thiazol-5-yl)pyrimidin-2-amine] as the compound, how does the HSA binding read?
Answer: 97%

Question: With `Fc1ccc(-c2nc(C3CCNCC3)sc2-c2ccnc(N3CCC(N4CCOCC4)CC3)n2)cc1` [Compound 56, 4-(1-(4-(4-(4-Fluorophenyl)-2-(piperidin-4-yl)thiazol-5-yl)pyrimidin-2-yl)piperidin-4-yl)morpholine] as the compound, how does the HSA binding read?
Answer: 90%

Question: With `OCCNc1nccc(-c2sc(C3CCNCC3)nc2-c2ccc(F)cc2)n1` [Compound 42, 2-({4-[4-(4-Fluorophenyl)-2-(piperidin-4-yl)-1,3-thiazol-5-yl]pyrimidin-2-yl}amino)ethanol] as the compound, how does the HSA binding read?
Answer: 79%

Question: For `Fc1ccc(-c2nc(C3CCNCC3)sc2-c2ccnc(N3CCCC3)n2)cc1` [Compound 53, 4-[4-(4-Fluorophenyl)-2-(piperidin-4-yl)-1,3-thiazol-5-yl]-2-(pyrrolidin-1-yl)pyrimidine], which HSA binding is on record?
Answer: 93%

Question: For `Fc1ccc(-c2nc(C3CCNCC3)sc2-c2ccnc(N3CCC(N4CCC4)CC3)n2)cc1` [Compound 55, 2-[4-(Azetidin-1-yl)piperidin-1-yl]-4-[4-(4-fluorophenyl)-2-(piperidin-4-yl)-1,3-thiazol-5-yl]pyrimidine], which HSA binding is on record?
Answer: 90%

Question: For `O[C@H]1CC[C@H](Nc2nccc(-c3sc(C4CCNCC4)nc3-c3ccc(F)cc3)n2)CC1` [Compound 51, trans-4-({4-[4-(4-Fluorophenyl)-2-(piperidin-4-yl)-1,3-thiazol-5-yl]pyrimidin-2-yl}amino)cyclohexanol], which HSA binding is on record?
Answer: 85%

Question: With `Fc1ccc(-c2nc(C3CCNCC3)sc2-c2ccnc(N3CCC(CN4CCOCC4)CC3)n2)cc1` [Compound 57, 4-((1-(4-(4-(4-Fluorophenyl)-2-(piperidin-4-yl)thiazol-5-yl)pyrimidin-2-yl)piperidin-4-yl)methyl)morpholine] as the compound, how does the HSA binding read?
Answer: 93%

Test system: not given
Assay: not given
Settings: PAMPA

Question: For `O=S(=O)(Nc1nc(-c2ccc(F)cc2)c(-c2ccnc(Nc3ccc(N4CCNCC4)cc3)n2)s1)C1CCNCC1` [Compound 18, N-[4-(4-Fluorophenyl)-5-{2-[4-(piperazin-1-yl)anilino]pyrimidin-4-yl}-1,3-thiazol-2-yl]piperidine-4-sulfonamide Trifluoroacetate], which AMP is on record?
Answer: 0.3

Question: For `CCCS(=O)(=O)Nc1nc(-c2ccc(F)cc2)c(-c2ccnc(Nc3ccc(N4CCNCC4)cc3)n2)s1` [Compound 17, N-[4-(4-Fluorophenyl)-5-{2-[4-(piperazin-1-yl)anilino]pyrimidin-4-yl}-1,3-thiazol-2-yl]propane-1-sulfonamide Trifluoroacetate], which AMP is on record?
Answer: 0.3

Question: For `Oc1cc(Nc2nccc(-c3sc(C4CCNCC4)nc3-c3ccc(F)cc3)n2)ccn1` [Compound 33, 4-({4-[4-(4-Fluorophenyl)-2-(piperidin-4-yl)-1,3-thiazol-5-yl]pyrimidin-2-yl}amino)pyridin-2-ol Trifluoroacetate], which AMP is on record?
Answer: 0.2

Question: For `Fc1ccc(-c2nc(N3CCOCC3)sc2-c2ccnc(Nc3ccc(N4CCNCC4)cc3)n2)cc1` [Compound 9, 4-[4-(4-Fluorophenyl)-2-(morpholin-4-yl)-1,3-thiazol-5-yl]-N-[4-(piperazin-1-yl)phenyl]pyrimidin-2-amine Trifluoroacetate], which AMP is on record?
Answer: 2.8

Question: With `Fc1ccc(-c2nc(N3CCCC3)sc2-c2ccnc(Nc3ccc(N4CCNCC4)cc3)n2)cc1` [Compound 10, 4-[4-(4-Fluorophenyl)-2-(pyrrolidin-1-yl)-1,3-thiazol-5-yl]-N-[4-(piperazin-1-yl)phenyl]pyrimidin-2-amine Trifluoroacetate] as the compound, how does the AMP read?
Answer: 2.7

Question: Which AMP does the source give for `CCOc1nccc(Nc2nccc(-c3sc(C4CCNCC4)nc3-c3ccc(F)cc3)n2)n1` [Compound 30, N-(2-Ethoxypyrimidin-4-yl)-4-[4-(4-fluorophenyl)-2-(piperidin-4-yl)-1,3-thiazol-5-yl]pyrimidin-2-amine Trifluoroacetate] here?
Answer: 1.7

Question: With `COc1cc(Nc2nccc(-c3sc(C4CCNCC4)nc3-c3ccc(F)cc3)n2)cc(C)n1` [Compound 34, 4-[4-(4-Fluorophenyl)-2-(piperidin-4-yl)-1,3-thiazol-5-yl]-N-(2-methoxy-6-methylpyridin-4-yl)pyrimidin-2-amine Trifluoroacetate] as the compound, how does the AMP read?
Answer: 1.9

Question: Which AMP does the source give for `CN1CCN(c2ccc(Nc3nccc(-c4sc(N)nc4-c4ccc(F)cc4)n3)cc2)CC1` [Compound 11, 4-[2-Amino-4-(4-fluorophenyl)-1,3-thiazol-5-yl]-N-[4-(4-methylpiperazin-1-yl)phenyl]pyrimidin-2-amine Trifluoroacetate] here?
Answer: 2.6

Question: Which AMP does the source give for `c1cc(Nc2nccc(-c3sc(C4CCNCC4)nc3C3CC3)n2)ncn1` [Compound 58, 4-(4-Cyclopropyl-2-(piperidin-4-yl)thiazol-5-yl)-N-(pyrimidin-4-yl)pyrimidin-2-amine Hydrochloride] here?
Answer: 1.8

Question: With `O=C(Nc1nc(-c2ccc(F)cc2)c(-c2ccnc(Nc3ccc(N4CCNCC4)cc3)n2)s1)C1CC1` [Compound 15, N-[4-(4-Fluorophenyl)-5-{2-[4-(piperazin-1-yl)anilino]pyrimidin-4-yl}-1,3-thiazol-2-yl]cyclopropanecarboxamide Trifluoroacetate] as the compound, how does the AMP read?
Answer: 0.2

Question: For `CN1CCC(C(=O)Nc2nc(-c3ccc(F)cc3)c(-c3ccnc(Nc4ccc(N5CCNCC5)cc4)n3)s2)CC1` [Compound 16, N-[4-(4-Fluorophenyl)-5-{2-[4-(piperazin-1-yl)anilino]pyrimidin-4-yl}-1,3-thiazol-2-yl]-1-methylpiperidine-4-carboxamide Trifluoroacetate], which AMP is on record?
Answer: 0.1

Same assay, conditions: Tables 2 and 5

Question: For `Cc1cc(Nc2nccc(-c3sc(C4CCNCC4)nc3-c3ccc(F)cc3)n2)nn1C` [Compound 23, N-(1,5-Dimethyl-1H-pyrazol-3-yl)-4-(4-(4-fluorophenyl)-2-(piperidin-4-yl)thiazol-5-yl)pyrimidin-2-amine], which AMP is on record?
Answer: 2e-06 cm/s

Question: With `Fc1ccc(-c2nc(C3CCNCC3)oc2-c2ccnc(Nc3ccncn3)n2)cc1` [Compound 28B] as the compound, how does the AMP read?
Answer: 1.9e-06 cm/s

Question: With `Cc1nc(Nc2nccc(-c3sc(C4CCNCC4)nc3-c3ccc(F)cc3)n2)ccc1F` [Compound 35, N-(5-Fluoro-6-methylpyridin-2-yl)-4-(4-(4-fluorophenyl)-2-(piperidin-4-yl)thiazol-5-yl)pyrimidin-2-amine] as the compound, how does the AMP read?
Answer: 3e-06 cm/s

Question: With `Fc1ccc(-c2nc(C3CCNCC3)sc2-c2ccnc(Nc3cnccn3)n2)cc1` [Compound 26, 4-(4-(4-Fluorophenyl)-2-(piperidin-4-yl)thiazol-5-yl)-N-(pyrazin-2-yl)pyrimidin-2-amine] as the compound, how does the AMP read?
Answer: 1.6e-06 cm/s
